Source: patent US20140121237A1, “Methods for Inhibiting Virus Replication” (priority 2011, published 2014)
Like-named read-outs stand apart in the source and are kept apart here.

Tests used:
A/WSN/33 [1] = details: previously shown (literature); cited from earlier work
A/CA/04/09 = test: Mouse infection, lung infectious virus titer (TCID50 on MDCK cells); type: in vivo, BALB/c female mice; details: NSC 95397 […], KN-93 10 mg/kg; for lung infectious virus (TCID50) vs control: prophylactic
A/WSN/33 [2] = test: In vitro inhibition assay in BEAS2B cells, virus copies by qRT-PCR; type: cell-based, Influenza A virus
CAMKIIB gene expression = type: in vivo, mice; details: 10 mg/kg; 24 h and 48 h post-treatment
[3] = mouse, in vivo
A/WSN/33 [4] = test: Mouse infection, lung M gene copy number by qPCR; type: in vivo, BALB/c female mice; details: prophylactic, NSC 95397 […], KN-93 10 mg/kg by gavage, lungs 48 h after infection
A/WSN/33 [5] = type: cell-based, Influenza A virus
A/New Calcdonia/20/90 [6] = test: Inhibition assay in A549 cells (qRT-PCR copy number, NP staining); type: cell-based, Influenza A virus; details: A549 cells treated prophylactically or therapeutically, varying concentrations
A/New Calcdonia/20/90 [7] = test: Influenza replication in lungs of mice (qRT-PCR, TCID50); type: in vivo, BALB/c mice; details: mice treated with 10 or 200 mg/kg
Protocol: (§1) Animals. BALB/c female mice (6-8 week-old) were obtained from NCI. All experiments and procedures were Institutional Animal Care and Use Committee (IACUC) approved by the IACUC of UGA. The animals were kept alone in cages. They were allowed free access to water and food both before and during the experiments. All experiments were performed with 5 mice per group and repeated independently at least twice.
(§2) Drug treatment and infection. Probenecid was dissolved in PBS and injected intraperitoneally at final doses of 10 and 200 mg/kg body weight (about 0.2 ml per animal). Similar studies were done using the same doses but delivering by gavage. […] The treatments were 24 h or 48 h before infection. Prior to infection, mice were anesthetized with Avertin and infected by intranasal instillation with 50 μl of PBS containing 100 PFU of A/WSN/33 or A/New Calcdonia/20/90 influenza virus. The lungs of the mice were collected at 48 hip for qRT-PCR and TCID50. In some studies, Probenecid was administered at 48 h prior to influenza virus infection by tail vein injection (200 ul) where the following groups were evaluated (5 mice/group): Group 1—Probenecid 5.0 mg/kg; Group 2—Probenecid 0.5 mg/kg; Group 3—Probenecid 0.05 mg/kg; Group 4—Positive Control—KN93 (10 mg/kg); Group 5—Negative Control (PBS); Group 6—Probenecid 5.0 mg/kg no infection (gene silencing only).
(§3) Detection of virus replication. qRT-PCR and TCID50 of the lungs. The lungs of infected animals were longitudinally sectioned. One half of the lung was into TRizol (Invitrogen, Carlsbad, Calif., USA) for isolating total RNA. Another half lung was into MEM/without serum media for TCIT50. The qRT-PCR performance for both of virus replication and the gene expression was like in vitro.

A/WSN/33 [8] = test: as above; type: in vivo, BALB/c mice
Protocol: as §1, §2, §3

A/WSN/33 [9] = test: Inhibition assay in A549 cells (qRT-PCR copy number, NP staining); type: cell-based, Influenza A virus; details: A549 cells treated prophylactically or therapeutically, varying concentrations
SLC22A8 gene [10] = tested on: SLC22A8 gene; parameters: species or system BALB/c mice; details: mouse, in vivo
[11] = in vivo; cited from earlier work
SLC22A8 gene [12] = type: cell-based, human; details: A549 cells; varying concentrations; 24 and 48 h

**Q.** For COc1ccc(S(=O)(=O)N(CCO)c2ccccc2CN(C)C/C=C/c2ccc(Cl)cc2)cc1 [KN-93], which “influenza viral replication in MDCK cells” value (A/WSN/33 [1]) is on record?
**A.** Its value is “inhibits A/WSN/33 influenza viral replication in a dose-dependent manner”.

**Q.** And the “lung infectious virus (TCID50) vs control” value (A/CA/04/09; 24 h before infection)?
**A.** Its value is “significantly (p<0.05) different than control”.

**Q.** What about the “lung infectious virus (TCID50) vs control” value (A/CA/04/09; 48 h before infection) of the same molecule?
**A.** Its value is “not statistically significant”.

**Q.** And the “reduction of lung virus titers vs control” value (A/CA/04/09; treatment at 24 h or 48 hpi)?
**A.** Its value is “no significant (p<0.05) effect”.

**Q.** And the inhibition at 250 µM (A/WSN/33 [2]; Influenza A virus, WSN, BEAS-2B, read-out: inhibition of virus replication)?
**A.** The inhibition at 250 µM was > 80%.

**Q.** And the “dose dependence of inhibition of virus replication” value (A/WSN/33 [2]; pretreatment 1 h, […])?
**A.** The value was “inhibited influenza replication in a dose-dependent manner”.

**Q.** And the “CAMKIIB gene expression in lungs” value (CAMKIIB gene expression)?
**A.** The value was “down-modulation”.

**Q.** What about the “toxicity in mice treated with drugs only” value [3] of the same molecule?
**A.** Its value is “no apparent toxicity”.

**Q.** What about the cell cytotoxicity (BEAS2B cells) of the same molecule?
**A.** The cell cytotoxicity was “insignificant”.

**Q.** What about the cell cytotoxicity (BEAS2B cells; 250 uM) of the same molecule?
**A.** The cell cytotoxicity was “negligible”.

**Q.** What about the “cell cytotoxicity compared to the control” value (BEAS2B cells; 500 uM (highest drug concentration)) of the same molecule?
**A.** Its value is 20-30%.

**Q.** And the “lung influenza M gene copy number vs control” value (A/WSN/33 [4]; 24 h before infection)?
**A.** Its value is “significantly (p<0.05) shielded”.

**Q.** And the “lung influenza M gene copy number vs control” value (A/WSN/33 [4]; 48 h before infection)?
**A.** Its value is “not statistically significant”.

**Q.** And the “number of NP-staining cells compared to control” value (A/WSN/33 [5])?
**A.** Its value is “not perceptibly affected”.

**Q.** Which toxicity (A549 cells) does the source give for CCCN(CCC)S(=O)(=O)c1ccc(C(=O)O)cc1 [Probenecid, 4-(dipropylsulfamoyl)benzoic acid] here?
**A.** Its toxicity is “without causing toxicity”.

**Q.** What about the influenza virus replication (A/New Calcdonia/20/90 [6]) of the same molecule?
**A.** The influenza virus replication was “refractory to influenza virus replication”.

**Q.** And the “influenza virus replication in lungs” value (A/New Calcdonia/20/90 [7])?
**A.** The value was “refractory to influenza virus replication”.

**Q.** And the “efficacy relative to Tamiflu” value (A/WSN/33 [8]; 10 mg/kg Probenecid, -24 or +24 h)?
**A.** The value was “as effective as Tamiflu treatment”.

**Q.** And the “influenza virus replication in lungs” value (A/WSN/33 [8]; mice treated prophylactically or therapeutically, varying concentrations)?
**A.** The value was “refractory to influenza virus replication”.

**Q.** And the influenza virus replication (A/WSN/33 [9])?
**A.** The influenza virus replication was “refractory to influenza virus replication”.

**Q.** What about the SLC22A8 gene expression (SLC22A8 gene [10]) of the same molecule?
**A.** The SLC22A8 gene expression was “effectively reduce SLC22A8 gene expression”.

**Q.** What about the “increase of blood concentrations of Tamiflu (oseltamivir)” value [11] of the same molecule?
**A.** The value was “more than double”.

**Q.** What about the SLC22A8 gene expression (SLC22A8 gene [12]) of the same molecule?
**A.** The SLC22A8 gene expression was “effectively reduce SLC22A8 gene expression”.
